Common to all, as to assay: Bliss interaction score (quartile over a dose matrix) (fitness difference); higher = more antagonism (negative = synergy)
One test has as its system S. aureus Newman. A digest of the protocol:
(§1)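 Fitness was OD595 at entry into stationary phase divided by the plate's robust no-drug mean and capped at 1; single-drug fitness was inferred from combination data. The Bliss score is observed minus expected (product) fitness, summarised by quartiles over technical, biological and donor/recipient replicates.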

The next test deals with S. aureus DSM 20231. A digest of the protocol:
as §1

For a further test, the system named is S. pneumoniae D39V. A digest of the protocol: as §1
Another test relates to B. subtilis 168. A digest of the protocol: as §1
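Also: first quartile when negative (synergy) and third quartile when positive (antagonism).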

For `CC(=O)O[C@H]1C[C@@]2(C)[C@@H](C[C@@H](O)[C@H]3[C@@]4(C)CC[C@@H](O)[C@@H](C)[C@@H]4CC[C@@]32C)/C1=C(\CCC=C(C)C)C(=O)O` [Fusidic acid] + Clc1ccc(COC(Cn2ccnc2)c2ccc(Cl)cc2Cl)c(Cl)c1 [Miconazole], the Bliss interaction score is -0.0399 with S. aureus Newman, 0.0483 in the test on S. aureus DSM 20231, -0.117 with S. pneumoniae D39V and -0.0605 with B. subtilis 168.
For `CC(=O)OC[C@H]1O[C@@H]([S-])[C@H](OC(C)=O)[C@@H](OC(C)=O)[C@@H]1OC(C)=O.CCP(CC)CC.[Au+]` [Auranofin] + N[C@@H]1CONC1=O [CycloserineD] the same measures were 0.0247, -0.0513, 0.106 and 0.0806.
For `O=C(N[C@H](CO)[C@H](O)c1ccc([N+](=O)[O-])cc1)C(Cl)Cl` [Chloramphenicol] + O=C(O)[C@H]1/C(=C/CO)O[C@@H]2CC(=O)N21 [Clavulanic], the Bliss interaction score with S. aureus Newman was 0.202; in the test on S. aureus DSM 20231, -0.265; in the test with S. pneumoniae D39V it was -0.0693; in the test on B. subtilis 168 it was 0.0981.
For `N[C@@H]1CONC1=O` [CycloserineD] + Cc1onc(-c2ccccc2)c1C(=O)N[C@@H]1C(=O)N2[C@@H]1SC(C)(C)[C@@H]2C(=O)O [Oxacillin] the same measures were -0.0567, 0.0729, -0.17 and 0.0509.
In the case of `O=C(N[C@H](CO)[C@H](O)c1ccc([N+](=O)[O-])cc1)C(Cl)Cl` [Chloramphenicol] + CCC(C)C1C(=O)NC(=C)C(=O)NC(C(=O)NC(CSCC(C(=O)N1)NC(=O)/C(=C/C)/NC(=O)C(C(C)CC)N)C(=O)NC2C(SCC(NC(=O)CNC(=O)C3CCCN3C2=O)C(=O)NC(CCCCN)C(=O)NC4C(SCC(NC(=O)CNC(=O)C(NC(=O)C(NC(=O)C(NC(=O)CNC4=O)C)CC(C)C)CCSC)C(=O)NC(CC(=O)N)C(=O)NC(CCSC)C(=O)NC(CCCCN)C(=O)NC5C(SCC6C(=O)NC(C(=O)NC(CSC(C(C(=O)N6)NC(=O)C(NC5=O)C)C)C(=O)NC(CO)C(=O)NC(C(C)CC)C(=O)NC(CC7=CN=CN7)C(=O)NC(C(C)C)C(=O)NC(=C)C(=O)NC(CCCCN)C(=O)O)CC8=CN=CN8)C)C)C)CC(C)C [Nisin], the Bliss interaction score was 0.0543 in the test with S. aureus Newman (main component drawn), -0.0704 with S. aureus DSM 20231 (main component drawn), -0.102 in the test with S. pneumoniae D39V (main component drawn) and 0.0397 with B. subtilis 168 (main component drawn).
As for `O=C1CN(/N=C/c2ccc([N+](=O)[O-])o2)C(=O)N1` [Nitrofurantoin] + C/C(=C\C(=O)OCCCCCCCCC(=O)O)C[C@@H]1OC[C@H](C[C@@H]2O[C@H]2[C@@H](C)[C@H](C)O)[C@@H](O)[C@H]1O [Pseudomonic acid], the Bliss interaction score in the test with S. aureus Newman was -0.0266; in the test on S. aureus DSM 20231, -0.0197; in the test with S. pneumoniae D39V, 0.0739; with B. subtilis 168 it was 0.127.
As to `CC(=O)OC[C@H]1O[C@@H]([S-])[C@H](OC(C)=O)[C@@H](OC(C)=O)[C@@H]1OC(C)=O.CCP(CC)CC.[Au+]` [Auranofin] + CO[C@H]1/C=C/O[C@@]2(C)Oc3c(C)c(O)c4c(O)c(c(/C=N/N5CCN(C)CC5)c(O)c4c3C2=O)NC(=O)/C(C)=C\C=C\[C@H](C)[C@H](O)[C@@H](C)[C@@H](O)[C@@H](C)[C@H](OC(C)=O)[C@@H]1C [Rifampicin], the Bliss interaction score in the test with S. aureus Newman is 0.0123; in the test on S. aureus DSM 20231, 0.0331; in the test on S. pneumoniae D39V, 0.0685; in the test on B. subtilis 168, 0.081.
For `C[C@@H](O)[C@H]1C(=O)N2C(C(=O)O)=C(SCCNC=N)C[C@H]12` [Imipenem] + CC[C@H]1OC(=O)[C@H](C)C(=O)[C@H](C)[C@@H](O[C@@H]2O[C@H](C)C[C@H](N(C)C)[C@H]2O)[C@](C)(OC)C[C@@H](C)C(=O)[C@H](C)[C@H]2N(CCCCn3cnc(-c4cccnc4)c3)C(=O)O[C@]12C [Telithromycin], the Bliss interaction score in the test with S. aureus Newman was -0.0123; with S. aureus DSM 20231, -0.0311; in the test with S. pneumoniae D39V it was 0.0906; in the test with B. subtilis 168, 0.0561.
As to `N[C@@H]1CONC1=O` [CycloserineD] + O=C1CN(/N=C/c2ccc([N+](=O)[O-])o2)C(=O)N1 [Nitrofurantoin], the Bliss interaction score was -0.0425 in the test with S. aureus Newman, 0.0785 with S. aureus DSM 20231, 0.197 in the test with S. pneumoniae D39V and 0.173 with B. subtilis 168.
For `CC(=O)OC[C@H]1O[C@@H]([S-])[C@H](OC(C)=O)[C@@H](OC(C)=O)[C@@H]1OC(C)=O.CCP(CC)CC.[Au+]` [Auranofin] + Cc1onc(-c2ccccc2)c1C(=O)N[C@@H]1C(=O)N2[C@@H]1SC(C)(C)[C@@H]2C(=O)O [Oxacillin] the same measures were -0.0535, 0.0406, 0.125 and -0.0319.
Take `O=C(N[C@H](CO)[C@H](O)c1ccc([N+](=O)[O-])cc1)C(Cl)Cl` [Chloramphenicol] + CO[C@@]12[C@H](COC(N)=O)C3=C(C(=O)C(C)=C(N)C3=O)N1C[C@@H]1N[C@@H]12 [MitomycinC]: the Bliss interaction score is 0.102 in the test with S. aureus Newman, -0.0503 in the test on S. aureus DSM 20231, -0.0831 in the test with S. pneumoniae D39V and 0.114 in the test on B. subtilis 168.
Turning to `CC(=O)O[C@H]1C[C@@]2(C)[C@@H](C[C@@H](O)[C@H]3[C@@]4(C)CC[C@@H](O)[C@@H](C)[C@@H]4CC[C@@]32C)/C1=C(\CCC=C(C)C)C(=O)O` [Fusidic acid] + CC1(C)S[C@@H]2[C@H](NC(=O)Cc3ccccc3)C(=O)N2[C@H]1C(=O)O [PenicillinG], the Bliss interaction score in the test on S. aureus Newman is -0.0384; in the test on S. aureus DSM 20231, 0.0382; in the test on S. pneumoniae D39V it was 0.0666; with B. subtilis 168, 0.0421.
In the same order, the values of `CC(=O)OC[C@H]1O[C@@H]([S-])[C@H](OC(C)=O)[C@@H](OC(C)=O)[C@@H]1OC(C)=O.CCP(CC)CC.[Au+]` [Auranofin] + CCC[C@@H]1C[C@@H](C(=O)N[C@@H]([C@H]2O[C@H](SC)[C@H](O)[C@@H](O)[C@H]2O)[C@H](C)Cl)N(C)C1 [Clindamycin] are 0.0741, 0.0307, 0.0341 and 0.0424.
For `N[C@@H]1CONC1=O` [CycloserineD] + Cc1cc(NS(=O)(=O)c2ccc(N)cc2)no1 [Sulfamethoxazol], the Bliss interaction score was 0.0449 in the test with S. aureus Newman, 0.0715 in the test on S. aureus DSM 20231, -0.188 in the test with S. pneumoniae D39V and -0.0418 in the test on B. subtilis 168.
In the case of `O=C(O[C@@H]1Cc2c(O)cc(O)cc2O[C@@H]1c1cc(O)c(O)c(O)c1)c1cc(O)c(O)c(O)c1` [EGCG] + Oc1cc(Cl)ccc1Oc1ccc(Cl)cc1Cl [Triclosan], the Bliss interaction score in the test on S. aureus Newman is 0.0222; with S. aureus DSM 20231, 0.0962; in the test with S. pneumoniae D39V, -0.0791; with B. subtilis 168, -0.0336.

Source of the values: the supplement of paper PMC10627819.
